Measured values as given in patent publication US12377112B2, “Methods of treating neurocognitive disorders, chronic pain and reducing inflammation” (priority 2019, dated 2025).

Tested on: healthy subjects
Experiment: Phase 1 study: Life Changes Inventory (LCI)
Type: in vivo, human
Text: In some embodiments, the Life Changes Inventory (LCI) questionnaire is utilized to evaluate the safety and/or efficacy of psilocybin. The LCI is designed as a questionnaire to investigate those variables present in the day-to-day experience of adults that might relate either to stability or decline of intellectual ability.
The following list of outcome measures are non-exhaustive: • a. The short-term change from Baseline (Day −1 [Visit 2]) to Day 7 (Visit 5) in cognitive measures of attention, spatial and working memory and executive function was measured by a composite score of the CANTAB Panel (Spatial Working Memory [SWM], Rapid Visual Information Processing [RVP], Paired Associates Learning [PAL]). • b. The short-term change from Baseline (Day −1 [Visit 2]) to Day 7 (Visit 5) in Social Cognition Panel scales (Pictorial Empathy Test [PET], Reading the Mind in the eyes Test [RMET], Toronto Empathy Questionnaire [TEQ], Social Value Orientation [SVO], Scale of Social Responsibility [SSR]). • c. The change from Baseline (Day −1 [Visit 2]) to Day 28 (Visit 6) in cognitive measures of attention, spatial and working memory and executive function as measured by a composite score of the CANTAB Panel (SWM, RVP, PAL). • d. The long-term change from Baseline (Day −1 [Visit 2]) to Day 84 (Visit 7) in Social Cognition Panel scales (PET, RMET, TEQ, SVO, SSR). • e. Dose-related differences between cognitive effects of psilocybin at Baseline (Day −1 [Visit 2]), Day 7 (Visit 5) and Day 28 (Visit 6), as measured by a composite score of the CANTAB Panel (SWM, RVP, PAL). • f. Dose-related differences between psychological effects of psilocybin at Baseline (Day −1 [Visit 2]), Day 7 (Visit 5) and Day 84 (Visit 7), as measured by Social Cognition Panel scales (PET, RMET, TEQ, SVO, SSR). • g. Differences in cognitive effects of psilocybin between psilocybin-naïve and experienced subjects at Baseline (Day −1 [Visit 2]), Day 7 (Visit 5) and Day 28 (Visit 6), as measured by a composite score of the CANTAB Panel (SWM, RVP, PAL). • h. Differences in Positive and Negative Affect Schedule (PANAS) after study drug administration on Day 0 (Visit 3). • i. Differences between psilocybin and placebo in the Emotion Recognition Test (ERT), Intra-Extra Dimensional Set Shift (IED), One Touch Stockings (OTS), Verbal Fluency and Digit Span Forward at Day 7 (Visit 5). • j. A composite score of the CANTAB Panel, including the following tests: • i. Spatial Working Memory (SWM) (performed at Visit 2, Visit 5, and Visit 6). • ii. Rapid Visual Information Processing (RVP) (performed at Visit 2, Visit 5, and Visit 6). • iii. Paired Associates Learning (PAL) (performed at Visit 2, Visit 5, and Visit 6). • k. Cognitive Flexibility Panel • i. Emotion Recognition Task (ERT) (performed at Visit 5). • ii. Intra-Extra Dimensional Set Shift (IED) (performed at Visit 5). • iii. One Touch Stockings (OTS) (performed at Visit 5). • iv. Verbal Fluency (performed at Visit 5). • v. Digit Span Forward (performed at Visit 5). • l. Five Dimension Altered States of Consciousness questionnaire (5D-ASC) (performed at Visit 3). • m. PANAS (performed at Visit 2 and Visit 3). • n. NEO-Five Factor Inventory (NEO-FFI) (performed at Visit 2, Visit 5, and Visit 7). • o. Symptom Checklist-90 item (SCL-90) (performed at Visit 2, Visit 5, and Visit 7). • p. Life Changes Inventory (LCI): The LCI measures changes in attitudes and values after near-death experiences often used to evaluate personal transformation following spiritually oriented experiences and practices. (performed at Visit 5 and Visit 7). • q. Social Cognition Panel scales • i. Pictorial Empathy Test (PET) (performed at Visit 2, Visit 5, and Visit 7). • ii. Reading the Mind in the Eyes Test (RMET) (performed at Visit 2, Visit 5, and Visit 7). • iii. Social Value Orientation (SVO) (performed at Visit 2, Visit 5, and Visit 7). • iv. Toronto Empathy Questionnaire (TEQ) (performed at Visit 2, Visit 5, and Visit 7). • v. […]

[1] = Psilocybin 10 mg - Placebo, Day 7
[2] = Psilocybin 10 mg - Placebo, Day 84
[3] = Psilocybin 25 mg - Placebo, Day 7
[4] = Psilocybin 25 mg - Placebo, Day 84
[5] = Psilocybin (25 mg - 10 mg), Day 7
[6] = Psilocybin (25 mg - 10 mg), Day 84

SMILES: CN(C)CCc1c[nH]c2cccc(OP(=O)(O)O)c12 [Psilocybin, psilocybin]
- LCI appreciation for life, LS mean difference [1]: 0.6
- LCI appreciation of death, LS mean difference [1]: 0.1
- LCI concern for others, LS mean difference [1]: 0.4
- LCI concern for worldly achievement, LS mean difference [1]: −0.2
- LCI concern social, LS mean difference [1]: 0.1
- LCI quest for meaning, LS mean difference [1]: 0.4
- LCI religiousness, LS mean difference [1]: −0.1
- LCI self-acceptance, LS mean difference [1]: 0.7
- LCI spirituality, LS mean difference [1]: 0.3
- LCI-absolute change, LS mean difference [1]: 0.4
- LCI appreciation for life, LS mean difference [2]: 0.6
- LCI appreciation of death, LS mean difference [2]: 0.2
- LCI concern for others, LS mean difference [2]: 0.4
- LCI concern for worldly achievement, LS mean difference [2]: −0.2
- LCI concern social, LS mean difference [2]: 0.1
- LCI quest for meaning, LS mean difference [2]: 0.4
- LCI religiousness, LS mean difference [2]: −0.0
- LCI self-acceptance, LS mean difference [2]: 0.5
- LCI spirituality, LS mean difference [2]: 0.4
- LCI-absolute change, LS mean difference [2]: 0.4
- LCI appreciation for life, LS mean difference [3]: 0.5
- LCI appreciation of death, LS mean difference [3]: 0.1
- LCI concern for others, LS mean difference [3]: 0.4
- LCI concern for worldly achievement, LS mean difference [3]: −0.1
- LCI concern social, LS mean difference [3]: 0.2
- LCI quest for meaning, LS mean difference [3]: 0.4
- LCI religiousness, LS mean difference [3]: 0.0
- LCI self-acceptance, LS mean difference [3]: 0.5
- LCI spirituality, LS mean difference [3]: 0.2
- LCI-absolute change, LS mean difference [3]: 0.3
- LCI appreciation for life, LS mean difference [4]: 0.5
- LCI appreciation of death, LS mean difference [4]: 0.2
- LCI concern for others, LS mean difference [4]: 0.5
- LCI concern for worldly achievement, LS mean difference [4]: −0.1
- LCI concern social, LS mean difference [4]: 0.1
- LCI quest for meaning, LS mean difference [4]: 0.4
- LCI religiousness, LS mean difference [4]: 0.0
- LCI self-acceptance, LS mean difference [4]: 0.5
- LCI spirituality, LS mean difference [4]: 0.4
- LCI-absolute change, LS mean difference [4]: 0.4
- LCI appreciation for life, LS mean difference [5]: −0.2
- LCI appreciation of death, LS mean difference [5]: −0.0
- LCI concern for others, LS mean difference [5]: 0.0
- LCI concern for worldly achievement, LS mean difference [5]: 0.1
- LCI concern social, LS mean difference [5]: 0.1
- LCI quest for meaning, LS mean difference [5]: 0.0
- LCI religiousness, LS mean difference [5]: 0.1
- LCI self-acceptance, LS mean difference [5]: −0.1
- LCI spirituality, LS mean difference [5]: −0.1
- LCI-absolute change, LS mean difference [5]: −0.1
- LCI appreciation for life, LS mean difference [6]: −0.1
- LCI appreciation of death, LS mean difference [6]: 0.0
- LCI concern for others, LS mean difference [6]: 0.1
- LCI concern for worldly achievement, LS mean difference [6]: 0.1
- LCI concern social, LS mean difference [6]: 0.0
- LCI quest for meaning, LS mean difference [6]: −0.0
- LCI religiousness, LS mean difference [6]: 0.1
- LCI self-acceptance, LS mean difference [6]: 0.0
- LCI spirituality, LS mean difference [6]: −0.0
- LCI-absolute change, LS mean difference [6]: −0.0
